Laboratory results taken from patent US20150258106A1, “METHODS FOR ACUTE AND LONG-TERM TREATMENT OF SUBSTANCE ABUSE” (DEMERX, INC., priority 2014, published 2015).
Entries after “also recorded” stand apart in the source; their conditions may differ. Read-outs that look alike come from different tables or passages of the source.

How the values were obtained:
[1] = test system: opioid-dependent participants; assay: Opiate withdrawal scales (COWS, SOWS, OOWS) in opioid-dependent participants; format: in vivo, human
Description: Patients were evaluated based on the Clinical Opiate Withdrawal Scale (COWS), Subjective Opiate Withdrawal Scale (SOWS), and Objective Opiate Withdrawal Scale (OOWS) scoring systems over the period of time between administration of noribogaine (or placebo) until resumption of OST. These scales are outlined in Guidelines for the Psychosocially Assisted Pharmacological Treatment of Opioid Dependence, World Health Organization, Geneva (2009), Annex 10, which is incorporated herein by reference in its entirety. The scales measure the intensity of withdrawal symptoms, based on clinical, subjective, and objective indicia.

[2] = Pharmacokinetics of noribogaine in healthy volunteers, ascending single oral dose (plasma noribogaine and noribogaine glucuronide); conditions: for CL/F: healthy male volunteers, fasted, n = 6, mean (SD); for mean AUC/24 hr / time after administration at which mean Cmax was observed / mean AUC/24: fasting
[3] = Pharmacokinetics in opioid-dependent patients (Phase IB study); format: in vivo, human; conditions: for AUC(0-t) / AUC / half-life / Tmax / Vd/F / Cmax: human, serum, opioid-dependent patients
Description: Three cohorts of nine (9) subjects (6 administered noribogaine and 3 administered placebo in each cohort) were evaluated for tolerability, pharmacokinetics, and efficacy. Cohort 1 received a single dose of 60 mg noribogaine or placebo. Cohort 2 received a single dose of 120 mg noribogaine or placebo. Cohort 3 received a single dose of 180 mg noribogaine or placebo. […] Headaches were frequent in the placebo and 60 mg noribogaine treatment groups, but were attenuated in the 120 mg and 180 mg dose groups.

[4] = test system: healthy, drug-free male volunteers; assay: Cold pressor test (analgesic effect) in healthy volunteers; format: in vivo, human
Description: Summary statistics (means, standard deviations, and coefficients of variation) were determined for each dose group for safety laboratory test data, ECG and pharmacokinetic parameters, and pharmacodynamic variables. Categorical variables were analysed using counts and percentages. Dose-proportionality of AUC and Cmax was assessed using linear regression. The effect of dose on pharmacodynamic parameter values over time was assessed using two-factor analysis of variance (ANOVA). Pairwise comparisons (with Tukey-Kramer adjustment) between each dose group to the placebo were conducted at each time point using the least squares estimates obtained from the ANOVA, using SAS Proc Mixed (SAS ver 6.0).
Analgesic effect was assessed based on duration of hand immersion in ice water and on visual analog scale (VAS) pain scores upon hand removal from the water bath.
(§1) Safety and tolerability of noribogaine were tested in the group of volunteers from Example 1. […] Safety evaluations included clinical monitoring, recording of adverse events (AEs), safety laboratory tests, vital signs, ECG telemetry from −2 h to 6 h after dosing, and 12-lead electrocardiograms (ECGs) up to 216 hours post-dosing.

[5] = test system: healthy, drug-free male volunteers; assay: Safety and tolerability of noribogaine in healthy humans (adverse events, vital signs, ECG); format: in vivo, human
Description: Pulse oximetry and capnography data were collected continuously using a GE Carescape B650 monitoring system from 2 hours prior to dosing and until six hours after dosing, and thereafter at 12, 24, 48 and 72 hours post-dosing. […] Pupillary miosis was assessed by pupillometry.
as §1

[6] = single dose of 3 mg noribogaine free base
[7] = single dose of 10 mg noribogaine free base
[8] = single dose of 30 mg noribogaine free base
[9] = single dose of 60 mg noribogaine free base

## CCC1CC2CC3c4[nH]c5ccc(O)cc5c4CCN(C2)C13 (stereo not drawn) [Noribogaine]
[1]; opioid-dependent patients, 120 mg
  withdrawal symptoms (COWS, OOWS, SOWS), first six hours following dosing: fewer withdrawal symptoms than the other patients
[1]; opioid-dependent patients, 60, 120 or 180 mg
  withdrawal symptoms (COWS, OOWS, SOWS), noribogaine compared with placebo: Patients administered placebo generally experienced more withdrawal symptoms than patients who were administered noribogaine
[2]; single oral 3 mg dose, plasma
  CL/F: 41.4 (7.0) L/h
[2]; single oral 10 mg dose, plasma
  CL/F: 42.3 (12.0) L/h
[2]; single oral 30 mg dose, plasma
  CL/F: 46.9 (16.4) L/h
[2]; single oral 60 mg dose, plasma
  CL/F: 34.0 (11.4) L/h
[2]; healthy volunteers, 3-60 mg single oral doses
  Cmax and AUC versus dose: increased linearly with dose
[2]; healthy volunteers, across dose groups 3-60 mg
  time of peak concentrations after oral dosing: 2 to 3 h
[2]; healthy volunteers, oral dosing
  absorption: rapidly absorbed
[2]; male, human, plasma, oral
  Vd: 1420 to 3090 L
  half-life: 28 to 50 h
[2]; male, human, plasma, po, 3 mg
  AUC(0-inf): 0.0742 µg·h/mL
  AUC(0-t): 0.0722 µg·h/mL
  Cmax: 0.0052 µg/mL
  Tmax: 1.9 h
  Vd/F: 2490 L
  half-life: 40.9 h
[2]; male, human, plasma, po, 10 mg
  AUC(0-inf): 0.255 µg·h/mL
  AUC(0-t): 0.251 µg·h/mL
  Cmax: 0.0145 µg/mL
  Tmax: 2.9 h
  Vd/F: 3090 L
  half-life: 49.2 h
[2]; male, human, plasma, po, 30 mg
  AUC(0-inf): 0.7 µg·h/mL
  AUC(0-t): 0.678 µg·h/mL
  Cmax: 0.0559 µg/mL
  Tmax: 1.8 h
  Vd/F: 1850 L
  half-life: 27.6 h
[2]; male, human, plasma, po, 60 mg
  AUC(0-inf): 1.96 µg·h/mL
  AUC(0-t): 1.94 µg·h/mL
  Cmax: 0.116 µg/mL
  Tmax: 2.4 h
  Vd/F: 1420 L
  half-life: 29.1 h
[2]; male, human, serum, oral, 3 mg
  Cmax: 0.0052 µg/mL
[2]; male, human, serum, oral, 10 mg
  Cmax: 0.0145 µg/mL
[2]; male, human, serum, oral, 30 mg
  Cmax: 0.0559 µg/mL
[2]; male, human, serum, oral, 60 mg
  Cmax: 0.116 µg/mL
[2]; [6]
  mean AUC/24 hr: 3.1 ng/mL
  time after administration at which mean Cmax was observed: 1.9 h
[2]; [7]
  mean AUC/24 hr: 10.6 ng/mL
  time after administration at which mean Cmax was observed: 2.9 h
[2]; [8]
  mean AUC/24: 29.2 ng/mL
  time after administration at which mean Cmax was observed: 1.75 h
[2]; [9]
  mean AUC/24: 61 ng/mL
  time after administration at which mean Cmax was observed: 1.75 h
[3]; 60 mg, Cohort 1 (60 mg), mean ± SD, read-out: AUC(0-T)
  AUC(0-t): 2.02 ± 0.614 µg·h/mL
[3]; 60 mg, Cohort 1 (60 mg), mean ± SD, read-out: AUC(0-¥)
  AUC: 2.06 ± 0.609 µg·h/mL
[3]; 60 mg, Cohort 1 (60 mg), mean ± SD, read-out: Half-life (converted)
  half-life: 29.3 ± 7.28 h
[3]; 60 mg, Cohort 1 (60 mg), mean ± SD, read-out: Tmax
  Tmax: 3.59 ± 0.92 h
[3]; 60 mg, Cohort 1 (60 mg), mean ± SD, read-out: Vd/F
  Vd/F: 1440 ± 854 L
[3]; 60 mg, Cohort 1 (60 mg), range, read-out: AUC(0-T) [range]
  AUC(0-t): 1.09 to 2.53 µg·h/mL
[3]; 60 mg, Cohort 1 (60 mg), range, read-out: AUC(0-¥) [range]
  AUC: 1.12 to 2.55 µg·h/mL
[3]; 60 mg, Cohort 1 (60 mg), range, read-out: Half-life [range]
  half-life: 18.3 to 37.3 h
[3]; 60 mg, Cohort 1 (60 mg), range, read-out: Tmax [range]
  Tmax: 2.5 to 5 h
[3]; 60 mg, Cohort 1 (60 mg), range, read-out: Vd/F [range]
  Vd/F: 620 to 2770 L
[3]; 60 mg, Cohort 1 (60 mg), mean ± SD, read-out: Cmax
  Cmax: 0.0816 ± 0.0238 µg/mL
[3]; 60 mg, Cohort 1 (60 mg), range, read-out: Cmax [range]
  Cmax: 0.0413 to 0.113 µg/mL
[3]; 120 mg, Cohort 2 (120 mg), mean ± SD, read-out: AUC(0-T)
  AUC(0-t): 3.23 ± 1.54 µg·h/mL
[3]; 120 mg, Cohort 2 (120 mg), mean ± SD, read-out: AUC(0-¥)
  AUC: 3.28 ± 1.58 µg·h/mL
[3]; 120 mg, Cohort 2 (120 mg), mean ± SD, read-out: Half-life (converted)
  half-life: 30.4 ± 9.14 h
[3]; 120 mg, Cohort 2 (120 mg), mean ± SD, read-out: Tmax
  Tmax: 2.99 ± 1.23 h
[3]; 120 mg, Cohort 2 (120 mg), mean ± SD, read-out: Vd/F
  Vd/F: 2110 ± 1640 L
[3]; 120 mg, Cohort 2 (120 mg), range, read-out: AUC(0-T) [range]
  AUC(0-t): 1.56 to 5.64 µg·h/mL
[3]; 120 mg, Cohort 2 (120 mg), range, read-out: AUC(0-¥) [range]
  AUC: 1.6 to 5.77 µg·h/mL
[3]; 120 mg, Cohort 2 (120 mg), range, read-out: Half-life [range]
  half-life: 21.9 to 48.3 h
[3]; 120 mg, Cohort 2 (120 mg), range, read-out: Tmax [range]
  Tmax: 0.98 to 4.02 h
[3]; 120 mg, Cohort 2 (120 mg), range, read-out: Vd/F [range]
  Vd/F: 824 to 5240 L
[3]; 120 mg, Cohort 2 (120 mg), mean ± SD, read-out: Cmax
  Cmax: 0.173 ± 0.0307 µg/mL
[3]; 120 mg, Cohort 2 (120 mg), range, read-out: Cmax [range]
  Cmax: 0.139 to 0.23 µg/mL
[3]; 180 mg, Cohort 3 (180 mg), mean ± SD, read-out: AUC(0-T)
  AUC(0-t): 6.52 ± 2.91 µg·h/mL
[3]; 180 mg, Cohort 3 (180 mg), mean ± SD, read-out: AUC(0-¥)
  AUC: 6.89 ± 3.49 µg·h/mL
[3]; 180 mg, Cohort 3 (180 mg), mean ± SD, read-out: Half-life (converted)
  half-life: 23.9 ± 5.54 h
[3]; 180 mg, Cohort 3 (180 mg), mean ± SD, read-out: Tmax
  Tmax: 4.41 ± 1.8 h
[3]; 180 mg, Cohort 3 (180 mg), mean ± SD, read-out: Vd/F
  Vd/F: 1030 ± 365 L
[3]; 180 mg, Cohort 3 (180 mg), range, read-out: AUC(0-T) [range]
  AUC(0-t): 3.72 to 10.4 µg·h/mL
[3]; 180 mg, Cohort 3 (180 mg), range, read-out: AUC(0-¥) [range]
  AUC: 3.73 to 12.3 µg·h/mL
[3]; 180 mg, Cohort 3 (180 mg), range, read-out: Half-life [range]
  half-life: 19.3 to 34.9 h
[3]; 180 mg, Cohort 3 (180 mg), range, read-out: Tmax [range]
  Tmax: 3 to 8 h
[3]; 180 mg, Cohort 3 (180 mg), range, read-out: Vd/F [range]
  Vd/F: 581 to 1610 L
[3]; 180 mg, Cohort 3 (180 mg), mean ± SD, read-out: Cmax
  Cmax: 0.268 ± 0.0469 µg/mL
[3]; 180 mg, Cohort 3 (180 mg), range, read-out: Cmax [range]
  Cmax: 0.205 to 0.338 µg/mL
[3]; opioid-dependent patients, 60, 120, 180 mg
  Maximum serum concentration of noribogaine (Cmax) versus dose: increased in a dose-dependent manner
[4]; after adjusting for baseline differences, p=0.17
  VAS pain scores upon hand removal, each dose group compared with placebo by ANOVA: no statistically significant differences
[4]; after adjusting for baseline differences, p>0.9
  duration of hand immersion in ice water, each dose group compared with placebo by ANOVA: no statistically significant differences
[4]; healthy volunteers, 3-60 mg single oral dose
  analgesic effect in the cold pressor test: no analgesic effect
[5]; healthy volunteers, 3 mg dose
  adverse events, Mild: Back pain; also recorded: Dizziness; also recorded: Epistaxis; also recorded: Headache
  adverse events, Moderate: Headache
[5]; healthy volunteers, 3 mg dose group
  number of adverse events reported: five adverse events were reported by two subjects
[5]; healthy volunteers, 10 mg dose
  adverse events, Mild: Headache
[5]; healthy volunteers, 10 mg dose group, single subject
  number of adverse events reported: one adverse event
[5]; healthy volunteers, 30 mg dose
  adverse events, Mild: Headache
[5]; healthy volunteers, 30 mg dose group, single subject
  number of adverse events reported: one adverse event
[5]; healthy volunteers, 3-60 mg
  oximetry, capnography, respiratory rate: no changes in oximetry or capnography, or changes in respiratory rate
  vital signs and safety laboratory tests: no changes in vital signs or safety laboratory tests of note
[5]; healthy volunteers, all groups, all resolved prior to study completion
  intensity of adverse events: mild-moderate intensity
[5]; healthy volunteers, at any time
  QTcF values: ≤ 500 ms
[5]; one subject dosed with 10 mg, at 24 hours post-dosing
  single increase in QTcF: > 60 ms
